Source: patent US20190167611A1, “METHODS OF TREATING OR PREVENTING AMYLOID RELATED IMAGING ABNORMALITIES ASSOCIATED WITH ALZHEIMER'S DISEASE TREATMENT” (BIOGEN CHESAPEAKE LLC, priority 2016, published 2019)

Columns and labels:
[1] = human, in vivo
Procedure: The two groups are referred to as the 0.4 mg/day group and the 3.0 mg/day group, respectively.

[2] = tested on: Alzheimer's disease patients who present with clinically significant ARIA; test: Clinical trial of glyburide plus standard of care versus placebo in Alzheimer's disease patients with clinically significant ARIA; format: in vivo, human; conditions: glyburide 0.5-3.0 mg/day, several routes
Procedure: In one arm, glyburide is administered as a bolus followed by continuous infusion. In a second arm, glyburide is administered via a transdermal patch or gel. In a third arm, glyburide is administered via injection. In a fourth arm, glyburide is administered orally. […] Total treatment duration will be a minimum of 72 hours and will continue as needed until acute brain edema has stabilized. […] Plasma levels of glyburide are determined daily or weekly. Each patient is monitored via blood sampling and MRI. Magnetic resonance imaging scans monitor patients for amyloid-related imaging abnormalities and progression of edema and/or associated hemorrhage. FLAIR sequences are evaluated for the presence of ARIA. A 4-point scale is used to assess presence of ARIA. The percentages of patients with ARIA are compared between treatment groups and placebo group.

| Metabolite exposure in relation to the administered dose of RP-1127 [1] | Dose dependence of pharmacokinetics [1] | SMILES | ARIA compared with the control group [2] | Brain edema compared with the control group [2] | Functional recovery compared with the control group [2] | Hemorrhage volume compared with the control group [2] |
| --- | --- | --- | --- | --- | --- | --- |
| approximately proportional | – | COc1ccc(Cl)cc1C(=O)NCCc1ccc(S(=O)(=O)NC(=O)NC2CCC(O)CC2)cc1 (stereo not shown) [M1] | – | – | – | – |
| approximately proportional | – | COc1ccc(Cl)cc1C(=O)NCCc1ccc(S(=O)(=O)NC(=O)N[C@@H]2CCC[C@H](O)C2)cc1 [M2] | – | – | – | – |
| – | dose-independent pharmacokinetics | COc1ccc(Cl)cc1C(=O)NCCc1ccc(S(=O)(=O)NC(=O)NC2CCCCC2)cc1 [glyburide] | significantly reduced or inhibited | reduced brain edema | improved functional recovery | reduced hemorrhage volume |
